Data taken from patent publication US20250017964A1, “ENGINEERING OR INDUCING PDGF AND/OR PDGFR SIGNALING TO ENHANCE NK CELL THERAPY” (City of Hope, priority 2021, published 2025).

How the values were obtained:
[1] = system: PDGFRβ expression in human NK cells; assay: Cytokine-induced PDGFRβ expression in purified human NK cells, flow cytometry; assay type: cell-based; conditions: 24 h
Excerpt: Data shown are the percentages of PDGFRβ^+ NK cells among total NK cells (n=5). […] Bar=20 μm. […] Data represent three independent experiments. Data shown are means SD.
FIGS. 7A-7F. […] Data shown are representative histograms and mean fluorescence intensity (MFI) of PDGFRα. […] Expression levels of PDGFRβ were examined by flow cytometry (n=6). […] Data shown are the percentages of PDGFRβ^+ NK cells among total NK cells (n=5). […] Data shown are representative histograms with MFI of PDGFRβ expression. (F) Expression levels of PDGFRβ on NK cells from IL-15 transgenic (Tg) mice were determined by flow cytometry. Data shown are representative histograms. Data represent three independent experiments.
NK cells were cultured in RPMI 1640 with 10% heat-inactivated FBS (Gibco) at 37° C. in a 5% CO2 humidified incubator. For NK cell transduction, PDGFRB cDNA ORF clone (Cat: HG10514-G) was purchased from Sino Biological and cloned into pCDH-CMV-MCS-EF1-copGFP lentivirus vector (System Biosciences). To produce lentivirus, we transfected the lentiviral transfer vector DNA, together with psPAX2 packaging (Addgene) and pMD2.G envelope plasmid DNA (Addgene), into HEK293T cells; using a polyethyenimine (PEI) transfection protocol (Polysciences). Concentrated lentivirus was added to primary NK cells cultured in RPMI 1640 medium supplemented with 10% FCS and 10 jig/mL polybrene with 2,000×g centrifugation for 2 h. Cells were cultured for an additional 48 h. […] The cells were then collected for flow cytometry analysis. For the inhibition assay, NK cells were pretreated with the indicated inhibitors for 1 h, washed twice with RPMI 1640. and then treated with IL-15 for 24 h.
Cells were stained with the indicated cell-surface markers and/or fixed/permeabilized using a Fixation/Permeabilization Kit (eBioscience). For intracellular staining of IFN-γ and PDGF-D, 5 μg/ml Brefeldin A (BioLegend) was added for 4 h before cell harvest. Intracellular staining of Ki67 was performed by fixing and permeabilizing with the Foxp3/Transcription Factor Staining Kit (eBioscience).

NK cells = assay: Annexin V and Ki67 staining of NK cells in vitro; assay type: cell-based, human; conditions: PDGF-D 50 ng/ml 48 h without IL-15
Procedure: FIGS. 4A-4J. PDGFRβ promotes IL-15-mediated NK cell survival in vitro and in vivo. (A) 5×10^5 sorted PDGFRβ^+ (Pos) and PDGFRβ^− (Neg) NK cells were cultured in vitro for 7 days in the presence of IL-15 (10 ng/ml). The cells were counted via trypan blue exclusion assay on days 3, 5, and 7 (n=5). (B and C) On day 7, Ki67 levels in PDGFRβ^+ and PDGFRβ^− NK cells were determined by flow cytometry (n=5). (D and E) Annexin V levels in PDGFRβ^+ and PDGFRβ^− NK cells on day 7 were determined by flow cytometry (n=5). (H-J) 1×10^7 sorted PDGFRβ^+ or PDGFRβ^− IL-15-transduced NK cells were injected into NOD/SCID/IL-2rg (NSG) mice. Blood samples were collected for analysis at the indicated time after adoptive transfer. Data shown are representative dot plots on day 9 after adoptive transfer (H), percentages (I), and absolute numbers (J) of PDGFRβ^+ and PDGFRβ^− NK cells on days 3, 6, and 9 after adoptive transfer (n=5). Data represent three independent experiments. […]
FIGS. 6A-6M. […] Cells were counted on days 3, 5, and 7 (n=3). […] Cells were counted on days 3, 5, and 7 (n=3). […] The cells were counted by trypan exclusion assay on days 3, 5, and 7 (n=3). […] Cells were counted by trypan exclusion assay on days 3, 5, and 7 (n=3). […] Cells were counted by trypan exclusion assay on days 3, 5, and 7 (n=3). […] Cell apoptosis and proliferation were analyzed by annexin V staining (J) and Ki-67 staining (K), respectively. […]

Substance | PDGFRβ expression ([1]; cytokine 10 ng/ml, IL-15 effect dose- and time-dependent) | PDGFRβ expression in CD56^bright NK cells ([1]; sorted CD56^bright NK cells, IL-15 10 ng/ml) | PDGFRβ expression in CD56^dim NK cells ([1]; sorted CD56^dim NK cells, IL-15 10 ng/ml) | apoptosis of PDGFRβ^+ NK cells (annexin V) (NK cells; IL-15-pretreated sorted cells) | NK cell proliferation (Ki67) (NK cells)
IL-15: recombinant human IL-15 (200-15); recombinant murine IL-15 in the mouse NK cell test | induced robust expression of PDGFRβ | not CD56^bright NK cells | induced PDGFRβ expression only in CD56^dim NK cells | – | –
PDGF-D: recombinant human PDGF-DD (1159-SB-025), R&D Systems | – | – | – | inhibited apoptosis | did not affect NK cell proliferation
